Laboratory results taken from patent publication US10954258B2, “STAT3 dimerization inhibitors” (H. LEE MOFFITT CANCER CENTER AND RESEARCH INSTITUTE, INC., priority 2012, dated 2021).

Key:
Format in all cases: cell-based, human
[1] = target: binding of FLAG-STAT3 to HA-STAT3 (Mus musculus, UniProt P42227); test: co-immunoprecipitation of FLAG-STAT3 with HA-STAT3 in HEK293 cells; details: HEK293 cells co-expressing FLAG- and HA-STAT3; treated 4 h
Procedure: HEK-293/FLAG-STAT3/HA-STAT3 cells were treated for 4 h with vehicle, S3I-1757, S3I-1756, Ac-G{pTYR}LPQTV-[…]-NH2 (SEQ ID NO:3) or Ac-GYLPQTV-[…]-NH2 (SEQ ID NO:4) and then lysed in 20 mM Tris-HCl (pH 7.4), 5 mM EDTA, 10 mM Na4P2O7, 100 mM NaF, 2 mM Na3VO4, 1% NP-40.1 mM PMSF and 10 mg/ml aprotinin. For EGF stimulation group, HEK-293/FLAG-STAT3/HASTAT3 cells were treated by 100 ng/ml EGF for 30 minutes before making cell lysate. Protein A or G agarose (EMD Millipore, Billerica, Mass., USA) was washed twice with PBS and restore to 50% slurry with PBS. 500 μg of lysate were pre-cleared by mixture of protein A and protein G-agarose for 1 h at 4° C. and then remove protein A and G-agarose by centrifuge at 1300 rpm for 3 minutes. And then 500 μg of lysate was immunoprecipitated with 50 ng of HA antibody overnight at 4° C. on shaker and then capture the immunocomplex by adding 100 μl Protein A and G agarose/sepharose bead slurry for 1 hour at 4° C. Samples were washed five times with lysis buffer and then boiled in 5×SDS-PAGE sample buffer and run on SDS-PAGE gel. Protein was transferred to nitrocellulose membrane and then blotted as described above for HA, FLAG, pSTAT3, EGFR, and STAT3.
However, the FP assay only measured the ability of S3I-1757 to displace the 7 amino acid fluorescein-labelled GpYLPQTV phosphotyrosine peptide from the SH2 domain of STAT3 protein in vitro. Therefore, it was determined if the intracellular reciprocal binding of 2 full-length STAT3 proteins is inhibited. To this end, an assay was developed to measure directly STAT3-STAT3 dimerization in intact cells by cloning HA-tagged STAT3 and FLAG-tagged STAT3, generating HEK293 cells that stably co-express HA-STAT3 and FLAG-STAT3 and using these cells for coimmunoprecipitation and co-localization. […] This assay was validated by treating the FLAG-STAT3/HA-STAT3 HEK293 cells with tyrosine phosphorylated or nonphosphorylated GYLPQTV peptide fused to a membrane-translocating sequence (MTS) to allow cell uptake. […]

[2] = system: STAT3-DNA binding activity in MDA-MB-468 and A-549 cells; test: STAT3-DNA binding filter plate assay on nuclear extracts; details: 1, 2 or 4 hours
Procedure: Nuclear extract preparation was carried out as described in Yu, et al., Science 1995; 269(5220):81-83. The STAT3-DNA binding filter plate assay was performed following the manual of the filter plate assay kit (Signosis, Sunnyvale, Calif.), as described for NFkB (Ying, et al., Blood 2011; 117(4):1301-1307). The TF Binding buffer was mixed with the STAT3 probe (biotin labeled STAT3 DNA binding sequence) and nuclear extract and incubated at 16° C. for 30 minutes to form the STAT3-DNA complex. The STAT3-DNA complex was then separated from free probe by using a filter plate. After several steps of binding and washing, bound STAT3 probe is retained on the filter in the corresponding well of Filer Plate and the free DNA probe is removed. The bound pre-labeled STAT3 probe was then eluted from the filter plate by centrifuge with elution buffer. Eluted probes were then hybridized into 96-well Hybridization Plate for quantitative analysis. The captured STAT3 probe was further detected by conjugation with streptavidin-HRP. The chemiluminescence of each well was detected by 2104 EnVisionR Multilabel Reader of PerkinElmer (Pekin Elmer, Waltham, Mass., USA) within 5 minutes after mixture with substrates. […]

[3] = system: P-STAT3, P-Erk, P-Akt, Bcl-xL, Survivin, MMP9 and Cyclin D1 in MDA-MB-468 cells; test: western immunoblotting of P-STAT3, P-Akt, P-Erk and STAT3 target genes; details: 18 hours
Procedure: MDA-MB-468 cells were treated with vehicle (DMSO), S3I-1757 at 50 μM, 100 μM and 200 μM, and S3I-1756 at 200 μM for 18 hours. Cells were then lysed with RIPA buffer (20 mM Tris-HCl (pH 7.4), 5 mM EDTA, 10 mM Na4P2O7, 100 mM NaF, 2 mM Na3VO4, 1% NP-40.1 mM PMSF and 10 mg/ml aprotinin). The cell lysates were denatured by boiling with 5×SDS-PAGE sample buffer for 5 minutes and run on SDS-PAGE gel. The proteins were then transferred to membranes that were blocked with 5% non-fat milk in Tris Buffer Saline with 0.1% Tween-20 (TBST) buffer for 30 minutes at room temperature, and incubated with primary antibodies (pY705STAT3, pAKT, AKT, pERK1/2, MMP9, and CyclinDi) 4° C. overnight at dilution of 1:1000 in 3% BSA, followed by washing and incubation with secondary antibody at dilution of 1:1000 in 5% non-milk Tris Buffer Saline with 0.1% Tween-20 (TBST) buffer for 1 hours at room temperature. The membranes were then washed with 1×PBS buffer for 10 minutes for 3 times and developed with ECL kit (PerkinElmer, Waltham, Mass., USA).
To this end, MDA-MB-468 cells were treated with vehicle, S3I-1756 or increasing concentration of S3I-1757 and processed for western blotting.

[4] = system: H460 cells; test: wound healing (migration) assay, H460; details: low levels of P-STAT3
Procedure: A549, MDA-MB-231 and H460 cells were seeded at 6×10^5 cells per dish into 60 mm plate and allowed to grow overnight. Wounds were made the following day by scratching the cells with pipette tips (1-10 μL).

Chain of binding of FLAG-STAT3 to HA-STAT3 (P42227 whole entry): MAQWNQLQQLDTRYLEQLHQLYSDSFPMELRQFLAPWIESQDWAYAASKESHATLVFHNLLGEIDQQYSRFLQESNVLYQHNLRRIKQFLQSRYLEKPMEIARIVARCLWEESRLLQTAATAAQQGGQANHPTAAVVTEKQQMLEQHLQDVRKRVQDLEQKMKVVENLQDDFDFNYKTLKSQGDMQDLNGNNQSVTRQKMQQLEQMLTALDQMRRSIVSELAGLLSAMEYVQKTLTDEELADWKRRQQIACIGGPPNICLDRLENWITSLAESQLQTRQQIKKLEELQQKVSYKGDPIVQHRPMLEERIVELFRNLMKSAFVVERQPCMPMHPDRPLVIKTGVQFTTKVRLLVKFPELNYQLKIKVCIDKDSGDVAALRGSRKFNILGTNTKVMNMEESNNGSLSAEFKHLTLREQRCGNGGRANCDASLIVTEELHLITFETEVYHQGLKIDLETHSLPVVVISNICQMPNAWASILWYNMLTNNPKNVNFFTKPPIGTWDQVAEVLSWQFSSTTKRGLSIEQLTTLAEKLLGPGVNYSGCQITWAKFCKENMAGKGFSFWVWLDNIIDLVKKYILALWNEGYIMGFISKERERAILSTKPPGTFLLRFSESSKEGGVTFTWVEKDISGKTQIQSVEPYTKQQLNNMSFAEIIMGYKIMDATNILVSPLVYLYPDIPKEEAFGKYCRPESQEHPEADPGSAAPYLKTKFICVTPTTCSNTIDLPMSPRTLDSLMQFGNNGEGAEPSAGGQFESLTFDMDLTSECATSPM

## O=C(O)c1cc(N(Cc2ccc(C3CCCCC3)cc2)C(=O)c2ccc(Oc3ccccc3)cc2)ccc1O [Compound 20g, 5-(N-(4-Cyclohexylbenzyl)-4-phenoxybenzamido)-2-hydroxybenzoic acid]
[1]
  binding of FLAG-STAT3 to HA-STAT3 (co-immunoprecipitation): inhibited the binding of FLAG-STAT3 to HA-STAT3 in a concentration-dependent manner
[2]
  activated STAT3 in nuclear extracts capable of binding the STAT3 DNA binding probe: contained less activated STAT3 capable of binding the STAT3 DNA binding probe
[3]
  expression of STAT3 target genes Bcl-xL, survivin, cyclin D1, MMP9: inhibited the expression of STAT3 target genes
  phosphorylation of STAT3-Y705 (western blotting): inhibited the phosphorylation of STAT3-Y705 in a concentration dependent manner starting at 50 μM
  selectivity of inhibition over Akt and Erk1/2 phosphorylation: selective for STAT3 over Akt and Erk1/2 phosphorylation
[4]
  migration (wound healing), H460: minimally affected
